The source of these data is PMC12687421, “Characterisation of an allosteric site in PLCγ enzymes and implications for development of their specific inhibitors” (Biochemical Journal, 2025).

As a reminder, the Kd is a measure of binding affinity in units of concentration.

Experiment [1] has as its target T1, PLCγ1^wt (Homo sapiens, UniProt P19174, I813T).
T1 construct: specific activities of PLCγ1^wt and PLCγ2^wt full-length proteins; made in house; host or cells: Escherichia coli T7 Express lysY/Iq
T1 sequence (P19174 1-1291 isoform P19174-2 I813T): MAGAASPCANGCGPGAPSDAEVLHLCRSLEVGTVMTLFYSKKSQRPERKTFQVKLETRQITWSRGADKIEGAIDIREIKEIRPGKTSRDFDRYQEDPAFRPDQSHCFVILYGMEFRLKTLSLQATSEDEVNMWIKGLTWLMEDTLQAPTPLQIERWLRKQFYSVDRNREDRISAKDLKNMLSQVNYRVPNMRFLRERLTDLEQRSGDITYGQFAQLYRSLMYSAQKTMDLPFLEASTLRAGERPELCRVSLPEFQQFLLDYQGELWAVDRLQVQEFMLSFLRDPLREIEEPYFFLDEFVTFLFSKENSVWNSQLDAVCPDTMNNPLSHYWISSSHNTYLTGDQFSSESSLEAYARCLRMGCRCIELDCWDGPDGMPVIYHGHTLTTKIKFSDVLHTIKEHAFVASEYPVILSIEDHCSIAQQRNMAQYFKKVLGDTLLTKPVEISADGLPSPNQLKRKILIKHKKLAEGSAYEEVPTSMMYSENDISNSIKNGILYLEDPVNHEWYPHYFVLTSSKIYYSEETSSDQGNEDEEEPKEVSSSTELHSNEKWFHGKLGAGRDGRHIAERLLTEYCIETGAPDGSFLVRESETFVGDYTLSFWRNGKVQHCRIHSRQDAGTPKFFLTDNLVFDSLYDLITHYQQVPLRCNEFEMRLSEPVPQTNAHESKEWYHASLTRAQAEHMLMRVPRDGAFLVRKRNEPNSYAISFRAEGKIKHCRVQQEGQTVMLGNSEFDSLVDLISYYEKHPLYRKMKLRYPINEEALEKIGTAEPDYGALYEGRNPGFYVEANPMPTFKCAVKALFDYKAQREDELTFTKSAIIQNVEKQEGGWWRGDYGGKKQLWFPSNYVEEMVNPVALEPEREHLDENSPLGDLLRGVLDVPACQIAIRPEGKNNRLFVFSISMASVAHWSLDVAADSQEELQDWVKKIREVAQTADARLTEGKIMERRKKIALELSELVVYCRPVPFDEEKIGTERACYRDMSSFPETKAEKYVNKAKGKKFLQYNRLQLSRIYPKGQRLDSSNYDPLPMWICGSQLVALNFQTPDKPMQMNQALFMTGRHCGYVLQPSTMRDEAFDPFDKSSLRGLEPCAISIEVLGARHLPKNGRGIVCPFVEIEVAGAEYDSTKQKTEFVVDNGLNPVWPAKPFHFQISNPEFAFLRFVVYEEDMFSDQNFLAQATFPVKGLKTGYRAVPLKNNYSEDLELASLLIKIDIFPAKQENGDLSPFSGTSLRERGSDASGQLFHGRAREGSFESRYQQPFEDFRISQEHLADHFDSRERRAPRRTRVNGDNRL
Nature of the experiment: Assay 1 (A1) with 10% nickel lipids (His-tagged PLCγ1 immobilised on liposomes). It counts as biochemical. The conditions noted are these: 10% Ni-lipids vs control. The text has this: The standard liposome components were designed to mimic a typical plasma membrane composition: 49% PE (brain or synthetic), 1% phosphatidylinositol 4,5-bisphosphate (PIP2), 20% brain phosphatidylserine (PS), 15% phosphatidylcholine (PC), 10% cholesterol and 5% sphingomyelin. The nickel liposome mix consisted of 39% PE (brain or synthetic), 1% PIP2, 20% brain PS, 15% PC, 10% cholesterol, 10% nickel lipid and 5% sphingomyelin.
A CLARIOstar plate reader (BMG Labtech) was used to measure the production of the fluorescent product. The excitation and emission wavelengths were 485–15 and 520–20, respectively. Each experiment was performed in at least triplicate; in many cases, nine-fold replicates were generated. The enzyme progress curves were plotted for each concentration of nucleotide using Graphpad Prism software. The initial linear rate of product generation was calculated and converted to a % inhibition when compared with the rate of PLC activity in the absence of nucleotide. These % inhibition values were plotted against the logarithm of the nucleotide concentration in Graphpad Prism and the data fitted with the function (Inhibitor) vs. response–variable slope (four parameters). The resultant fit yielded the IC50 values for the nucleotide inhibition.
The standard XY-69 assay format outlined above was repeated with the addition of 10% nickel lipids in the liposome mixture. […]

The target of experiment [2] is T1, PLCγ1^wt. Put plainly: Saturation transfer difference (STD) NMR binding. The conditions noted are these: STD amplification factor vs ADP concentration; likely an overestimate; read-out: Kd, STD-NMR, H2 resonance. On the procedure: Protein was buffer exchanged into phosphate buffered saline (pH 7.5) prepared in deuterium oxide. A 10 mM stock of ultrapure ADP was purchased from Promega. NMR spectra were acquired at 293 K in a Bruker Avance Neo 600 MHz spectrometer equipped with QCI-F cryoprobe and operating Topspin 4.2. Saturation transfer difference NMR experiments (stddiffesgp.3) were acquired with 2 s saturation at 0.75 and 50 ppm using 50 ms Gaussian pulses. For the determination of Kd, ADP was added to the protein at ligand excesses from 5- to 100-fold. The protein concentration was 10 µM. STD amplification factors, AF=L0/P0⋅Iref−Isat/Iref , were measured and fitted to a hyperbolic dose-response model to determine the dissociation constant for the protein/ADP interaction.

Another experiment relates to PLCγ1^S345F. Put plainly: PLC activity assay 1 (A1), PLCγ1 S345F variant. Type of experiment: biochemical, human. The method, then: The effect of nucleotide inhibition on PLC activity was measured using either a membrane-based assay with the fluorescent substrate (XY-69) incorporated into liposomes or using a small soluble substrate, Aldol 518 myo-inositol-1-phosphate (Aldol). Both methods utilised the same PLC assay buffer [20 mM Hepes-KOH, 70 mM KCl, 3 mM EGTA, 2.97 mM CaCl2, 2 mM TCEP and fatty acid-free bovine serum albumin (FAF-BSA; 50 μg/ml) (pH 7.5)]. Both assays were performed in low volume black 384-well plates (Greiner Bio-One), were composed of a final assay volume of 20 μl and were monitored in a Clariostar plate reader (BMG Labtech). […] The excitation and emission wavelengths were 588–15 and 642–20, respectively.
A CLARIOstar plate reader (BMG Labtech) was used to measure the production of the fluorescent product. The excitation and emission wavelengths were 485–15 and 520–20, respectively. Each experiment was performed in at least triplicate; in many cases, nine-fold replicates were generated. The enzyme progress curves were plotted for each concentration of nucleotide using Graphpad Prism software. The initial linear rate of product generation was calculated and converted to a % inhibition when compared with the rate of PLC activity in the absence of nucleotide. […]

On to `Nc1ncnc2c1ncn2[C@@H]1O[C@H](COP(=O)(O)OP(=O)(O)OP(=O)(O)O)[C@@H](O)[C@H]1O` [ATP], for which, at PLCγ1^wt [1], the “effect of immobilisation to liposomes on inhibition of PLC activity” value is “prevented or, at higher concentrations, reduced inhibition”.
Consider `Nc1ncnc2c1ncn2[C@@H]1O[C@H](COP(=O)(O)OP(=O)(O)O)[C@@H](O)[C@H]1O` [ADP], for which the Kd at PLCγ1^wt [2] is around 196 µM. Also, in the experiment with PLCγ1^S345F, the “IC50 relative to PLCγ1^wt (fold higher)” value is 5–7 fold.
